Tests used:
RAW264.7 [1] = experiment: Inhibition of iNOS in mouse RAW264.7 cells assessed as inhibition of LPS-induced nitrite production at 50 uM treated 30 mins before LPS challenge measured after 24 hrs by Griess method; assay type: functional
[2] = Inhibition of NF-kappaB expressed in human HEK293 cells by luciferase reporter gene based luminometric analysis; assay type: cell-based
RAW264.7 [3] = experiment: Inhibition of iNOS in mouse RAW264.7 cells assessed as inhibition of LPS-induced nitrite production treated 30 mins before LPS challenge measured after 24 hrs by Griess method; assay type: functional, cell-based
[4] = biological target: NAD(P)H dehydrogenase [quinone] 1 (Mus musculus) (UniProt Q64669); conditions: Hepa-1c1c7
NAD(P)H dehydrogenase [quinone] 1 (Mus musculus), sequence (Q64669 whole entry): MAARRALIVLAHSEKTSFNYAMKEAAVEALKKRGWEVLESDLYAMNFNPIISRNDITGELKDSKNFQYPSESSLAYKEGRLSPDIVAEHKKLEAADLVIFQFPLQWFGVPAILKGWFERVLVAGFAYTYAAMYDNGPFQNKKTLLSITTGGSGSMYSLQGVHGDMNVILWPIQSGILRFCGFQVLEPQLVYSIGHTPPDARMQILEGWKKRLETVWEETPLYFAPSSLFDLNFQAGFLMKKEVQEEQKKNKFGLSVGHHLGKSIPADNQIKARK

[5] = Cytotoxicity against mouse Hepa-1c1c7 cells at 50 uM after 48 hrs by crystal violet staining; assay type: cell-based; conditions: hepa-1c1c7, 48 h
[6] = biological target: T1, Ribosyldihydronicotinamide dehydrogenase [quinone] (Homo sapiens, UniProt P16083); experiment: Inhibition of human QR2 expressed in Escherichia coli BL21 (DE3) using MTT and NMeH as substrate assessed as formazan formation
T1 sequence (P16083 whole entry): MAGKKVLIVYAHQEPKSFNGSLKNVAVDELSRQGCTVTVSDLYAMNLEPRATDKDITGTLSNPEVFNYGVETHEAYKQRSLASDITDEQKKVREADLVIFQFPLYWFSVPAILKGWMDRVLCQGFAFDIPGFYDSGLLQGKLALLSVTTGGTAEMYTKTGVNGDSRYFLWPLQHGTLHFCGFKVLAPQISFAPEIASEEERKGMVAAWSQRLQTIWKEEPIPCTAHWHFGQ

HCT-116 = experiment: Cytotoxicity against human HCT116 cells; assay type: functional, cell-based
RAW264.7 [7] = experiment: Inhibition of iNOS in mouse RAW264.7 cells assessed as inhibition of LPS-induced nitrite production at 100 uM treated 30 mins before LPS challenge measured after 24 hrs by Griess method; assay type: functional
cells = conditions: Mus musculus, Hepa-1c1c7, 48 h

| Structure (SMILES) | inhibition at 50 µM (RAW264.7 [1]) | IC50 [2] | IC50 (RAW264.7 [3]) | CD [4] | also measured |
| --- | --- | --- | --- | --- | --- |
| Cc1ccc2nc3ccccc3nc2c1 | 38.7% | – | – | – | – |
| Cc1cc(Br)cc2nc3ccccc3nc12 | 5.5% | – | – | – | – |
| COc1cc(Br)c(Br)c2nc3cc(C)c(C)cc3nc12 | 77.7% | 1.39 µM | 34.5 µM | – | – |
| Oc1c(Br)cc(Br)c2nc3ccccc3nc12 | 70.9% | – | 4.2 µM | 27 µM | – |
| COc1ccc2nc3ccccc3nc2c1 | 12.5% | – | – | – | – |
| COc1cccc2nc(C)c(C)nc12 | 0.8% | – | – | – | – |
| COc1cc2nc3ccccc3nc2cc1OC | 29.4% | – | – | – | – |
| COc1cc(Br)cc2nc3ccccc3nc12 | 68.6% | – | 26.5 µM | – | – |
| COc1cccc2nc3ccccc3nc12 | 2.4% | – | – | – | – |
| c1ccc2cc3nc4ccccc4nc3cc2c1 [BENZO[B]PHENAZINE] | 98.7% | 2.48 µM | 5.9 µM | 4.39 µM | Activity [5]: Toxic |
| COc1cccc2nc3cc(Cl)c(Cl)cc3nc12 | 14.6% | 16.2 µM | – | 9.42 µM | – |
| COc1cccc2nc3cc(C)c(C)cc3nc12 | 53.8% | – | 47 µM | 11.3 µM | – |
| O=[N+]([O-])c1cc(Br)c2nc3ccccc3nc2c1 | 79.7% | 13.1 µM | 7.2 µM | – | – |
| Cc1nc2c(Br)cc(Br)c(O)c2nc1C | 81.3% | 1.93 µM | 45.6 µM | – | IC50 [6]: 2.9 µM |
| COc1cc(Br)cc2nc3cc(C)c(C)cc3nc12 | 8.8% | 6.64 µM | – | – | – |
| COc1cc(Br)c(Br)c2nc3ccccc3nc12 | 70.9% | – | 33.7 µM | – | – |
| Brc1cc(Br)c2nc3ccccc3nc2c1 | 16.4% | – | – | – | – |

| Structure (SMILES) | inhibition at 50 µM (RAW264.7 [1]) | IC50 [2] | IC50 (RAW264.7 [3]) | CD [4] | also measured |
| --- | --- | --- | --- | --- | --- |
| Oc1cc(Br)c(Br)c2nc3ccccc3nc12 | 79.2% | 4.74 µM | 17.4 µM | – | – |
| Cc1nc2cccc(O)c2nc1C | 0% | – | – | – | Activity [5]: Toxic |
| Cc1nc2cc3ccccc3cc2nc1C | 3.4% | – | – | 16.6 µM | Activity [5]: Toxic |
| Oc1c(Br)ccc2nc3ccccc3nc12 | – | 73 µM | – | – | IC50 (HCT-116): 0.1 µM; inhibition at 100 µM (RAW264.7 [7]): 31.5% |
| COc1c(Br)ccc2nc3ccccc3nc12 | 44.7% | – | – | 29.4 µM | – |
| Oc1ccc(Br)c2nc3ccccc3nc12 | 84.7% | 5.19 µM | 31.5 µM | – | – |
| Cc1cc2nc3ccccc3nc2cc1C | 49.1% | 9.15 µM | – | 23 µM | – |
| Oc1cccc2nc3cc(Cl)c(Cl)cc3nc12 | 51.2% | – | 47.2 µM | 1.85 µM | – |
| C[S+]([O-])CCCCN=C=S (centres undefined) | – | – | – | 0.23 µM | – |
| CS/C(S)=N/CCCC[S+](C)[O-] (centres undefined) | – | – | – | 0.26 µM | – |
| COc1ccc(OC)c2nc3ccccc3nc12 | 5% | – | – | – | – |
| COc1cccc2nc3cc4ccccc4cc3nc12 | – | 2.1 µM | 7.2 µM | 0.0047 µM | IC50 (cells): 9.58 µM |
| COc1cc(Br)cc2nc3cc(Cl)c(Cl)cc3nc12 | 0% | 2.46 µM | – | 0.012 µM | – |
| COc1ccc(Br)c2nc3cc(C)c(C)cc3nc12 | 51.9% | 17 µM | 48.9 µM | 1.83 µM | – |
| COc1c(Br)cc(Br)c2nc3ccccc3nc12 | 24.7% | – | – | – | – |
| Oc1cc(Br)cc2nc3ccccc3nc12 | 86.5% | 5.42 µM | 28.4 µM | – | – |
| COc1ccc(Br)c2nc3ccccc3nc12 | 47.5% | – | – | 4.3 µM | – |

Reference: ChEMBL document CHEMBL1800051 (J Med Chem, 2010)
